Results published in patent US12414951B2, “Use of compound in preparation of medicament for prophylaxis and treatment of inflammatory tissue damage” (Sichuan University, priority 2022, dated 2025).

Experiments:
IRF1 = target: T1, IRF1 (Homo sapiens, UniProt P10914); assay: IRF1 transcriptional activity, dual-luciferase reporter system in irradiated HaCaT cells; format: cell-based; conditions: 10 μM 24 h before irradiation, X-ray 20 Gy, detection 1 h after irradiation, P<0.01
T1 construct: Human skin keratinocytes (HaCaT cells) were infected in vitro according to a titer of 100 MOI; endogenous in cells; host or cells: HaCaT human skin keratinocytes infected with an h-IRF1 promoter-rluc reporter adenovirus
T1 sequence (P10914 1-325): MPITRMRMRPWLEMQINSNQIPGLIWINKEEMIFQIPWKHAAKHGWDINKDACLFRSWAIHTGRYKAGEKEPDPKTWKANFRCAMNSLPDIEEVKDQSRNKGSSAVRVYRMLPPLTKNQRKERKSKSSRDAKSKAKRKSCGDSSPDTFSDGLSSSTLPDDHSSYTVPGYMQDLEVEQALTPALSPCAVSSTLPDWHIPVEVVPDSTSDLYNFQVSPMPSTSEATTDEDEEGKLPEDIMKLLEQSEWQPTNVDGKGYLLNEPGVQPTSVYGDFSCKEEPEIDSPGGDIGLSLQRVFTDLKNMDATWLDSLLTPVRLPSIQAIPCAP
Excerpt: To determine the inhibitory effect of the compound (IRSKIN-1) on the transcriptional activity of IRF1, Hanbio Biotechnology (Shanghai) Co., Ltd. was entrusted to construct an h-IRF1 promoter-rluc adenovirus vector. The vector has four binding sites of IRF1, and the downstream of the promoter is a luciferase reporter gene. The virus was constructed based on a dual-luciferase reporter system, and the transcriptional activity of IRF1 could be directly reflected by the luciferase activity. Human skin keratinocytes (HaCaT cells) were infected in vitro according to a titer of 100 MOI, and the virus infection efficiency met the experimental requirement 48 h after infection.
A microplate reader PROMEGA and the corresponding substrates were used for detection 1 h after irradiation.

[1] = test system: Caspase1, GSDMD and IL1 in irradiated skin cells; assay: Western blot of pyroptosis pathway proteins in irradiated skin cells; format: cell-based; conditions: 10 μM for 24 h before irradiation, 20 Gy X-ray once
Protocol: To determine the mechanism of the inhibitory effect of IRF1 inhibitor IRSKIN-1 on inflammatory death in the irradiated skin cells, cells were treated with 10 μM IRSKIN-1 or equivalent DMSO for 24 h before irradiation, respectively; subsequently, the cells were irradiated with 20 Gy X-ray once, and changes in key proteins of cell pyroptosis pathway, Caspase1 and GSDMD, and inflammatory factor IL1 were detected by Western blot, so as to determine the inhibitory effect of IRSKIN-1 on inflammatory death in the irradiated skin cells and its mechanism.

[2] = test system: inflammatory factors in irradiated skin tissue; assay: inflammation microarray of irradiated skin tissue of treated mice; format: in vivo, mouse; conditions: s.c. treatment, FIG. 10
Protocol: (§1) Male C57 BL/6J mice aged 6-8 weeks were purchased from GemPharmatech Co., Ltd. The mice were acclimatized and randomized into two groups (6 mice per group); the mice were subcutaneously injected with IRSKIN-1 (which was dissolved in DMSO to prepare a 50 mM solution, 100 μL/time) and equivalent DMSO once 1 and 3 days before irradiation, respectively; based on 1% of the body weight of each mouse, the mouse was anesthetized by intraperitoneal injection of 1% chloral hydrate, the skin of hind limbs of the mouse was depilated, and the mouse was immobilized on a board to reduce accidental movements during irradiation.
(§2) The skin of limbs of mice was irradiated with 6 MeV electron ray generated by Varian 23EX Linear Accelerator (Varian, the USA); the surface was covered with a 1 cm thick bolus, and non-irradiated sites were shielded with a lead plate; the irradiation area was approximately 30×40 mm, the absorbed dose rate was 750 cGy/min, and the total dose was 45 Gy; and the range of the irradiated area was outlined with a marker pen during irradiation.

irradiated skin cells [3] = assay: mortality of irradiated skin cells by AV/PI staining; format: cell-based; conditions: 10 μM for 24 h before irradiation; 20 Gy X-ray once; 3 days after irradiation; vs DMSO, P<0.01
Protocol: To determine whether IRSKIN-1 reduces the mortality of irradiated skin cells, cells were treated with 10 μM IRSKIN-1 or equivalent DMSO for 24 h before irradiation, respectively; subsequently, the cells were irradiated with 20 Gy X-ray once, and the effect of IRSKIN-1 on irradiated cell proliferation ability was evaluated by AV/PI staining method 3 days after irradiation.

mouse primary skin cells = assay: senescence of irradiated primary skin cells by β-galactosidase staining; format: cell-based; conditions: 10 μM for 24 h before irradiation; 20 Gy X-ray once; 3 days after irradiation; vs DMSO, P<0.01
Protocol: To determine whether IRSKIN-1 reduces the senescence rate of irradiated skin cells, mouse primary skin cell were isolated and cultured, cells were treated with 10 μM IRSKIN-1 or equivalent DMSO for 24 h before irradiation, respectively; subsequently, the cells were irradiated with 20 Gy X-ray once, and the effect of IRSKIN-1 on irradiated primary cell senescence was evaluated by β-galactosidase staining method 3 days after irradiation.

[4] = test system: radiation-induced skin injury in C57 BL/6J mice; assay: radiation-induced skin injury mouse model, subcutaneous injection; format: in vivo; conditions: 1 and 3 days before irradiation
Protocol: as §1, §2

irradiated skin cells [5] = assay: colony formation test of irradiated skin cells; format: cell-based; conditions: 10 μM for 24 h before irradiation; X-ray 2 Gy once or twice or Sr 90 4 Gy once; vs DMSO, P<0.01
Protocol: To determine the promoting effect of IRF1 inhibitor IRSKIN-1 on irradiated skin cell proliferation, cells were treated with 10 μM IRSKIN-1 or equivalent DMSO for 24 h before irradiation, respectively; subsequently, the cells were subjected to fractionated irradiation at 2 Gy once or at 2 Gy twice or Sr 90 irradiation at 4 Gy once, respectively; subsequently, the effect of IRSKIN-1 on irradiated cell proliferation ability was evaluated by the colony formation test (2,500 cells were spread on each well of a 6-well plate).

[6] = s.c. 50 mM in DMSO 100 μL/time, 45 Gy electron ray

Q: Which results are given for `O=C(CCn1cnc2ccccc2c1=O)Nc1ccc(S(=O)(=O)N2CCCCC2)cc1` [IRSKIN-1, 3-(4-oxo-3 (4H)-quinazolinyl)-N-[4-(1-piperidinylsulfonyl)phenyl]propanamide]?
A: irradiated IRF1 transcriptional activity (luciferase activity) vs DMSO-treated irradiation group (IRF1): significantly lower; hydrolysis of Caspase1 [1]: inhibit the hydrolysis; hydrolysis of GSDMD [1]: inhibit the hydrolysis; hydrolysis of IL1 [1]: inhibit the hydrolysis; expression of BLC in skin tissue [2]: downregulated; expression of G-CSF in skin tissue [2]: upregulated; expression of MIP-1a in skin tissue [2]: upregulated; expression of TNF-R II in skin tissue [2]: upregulated; cell mortality after X-ray irradiation (AV/PI staining) (irradiated skin cells [3]): reduce cell mortality; β-galactosidase positive rate (senescence) of mouse primary cells (mouse primary skin cells): reduce the β-galactosidase positive rate; wet ulcers of the skin ([4]; s.c. 50 mM 100 μL/time, 45 Gy, FIG. 8, 15 and 30 days after irradiation): wet ulcers appeared in only fewer areas; progression scores of radiation-induced skin injury ([4]; s.c. 50 mM 100 μL/time, 45 Gy, FIG. 9): reducing progression scores; progression of radiation-induced skin injury vs DMSO group [4, 6]: slower; ulcer wound area vs DMSO group [4, 6]: smaller ulcer wound area; clone formation ability of irradiated skin cells (irradiated skin cells [5]): significantly improve
